Laboratory results published in US20050255131A1, “Clindamycin compositions and delivery system therefor” (priority 2004, published 2005).

Experiments:
[1] = Storage stability of clindamycin phosphate solutions; type: physicochemical; settings: solution in water; elevated temperatures
From the text: For the clindamycin phosphate solution, a maximum of about 6% salt is soluble in water. This solution is not stable upon long-term storage at elevated temperatures. In order to utilize the chamber in a chamber delivery system wherein the contents of a small chamber are combined with the contents of a larger chamber, compositions containing a concentration of clindamycin phosphate higher than 6% are desirable. In accordance with the present disclosure, solutions containing concentrations of clindamycin in excess of 6% in a minimum amount of water may be prepared by using co-solvents such as glycerin. Clindamycin phosphate by itself is not soluble in glycerin alone. […] Thus, the present compositions may contain a solution of water, clindamycin and glycerin, wherein the amount of water is insufficient alone to solubilize the clindamycin. The term “solubilize” as used with respect to solubilizing clindamycin refers to the ability to dissolve clindamycin and optionally with heating and stirring and maintaining clindamycin in solution at room temperature for at least 24 hours.

[2] = Solubility of clindamycin phosphate in water, glycerin and water/glycerin co-solvent; type: physicochemical
From the text: For the clindamycin phosphate solution, a maximum of about 6% salt is soluble in water. This solution is not stable upon long-term storage at elevated temperatures. In order to utilize the chamber in a chamber delivery system wherein the contents of a small chamber are combined with the contents of a larger chamber, compositions containing a concentration of clindamycin phosphate higher than 6% are desirable. In accordance with the present disclosure, solutions containing concentrations of clindamycin in excess of 6% in a minimum amount of water may be prepared by using co-solvents such as glycerin. Clindamycin phosphate by itself is not soluble in glycerin alone. […] Thus, the present compositions may contain a solution of water, clindamycin and glycerin, wherein the amount of water is insufficient alone to solubilize the clindamycin. The term “solubilize” as used with respect to solubilizing clindamycin refers to the ability to dissolve clindamycin and optionally with heating and stirring and maintaining clindamycin in solution at room temperature for at least 24 hours. […] By increasing the concentration of clindamycin in solution by means of a co-solvent such as glycerin, the present methods make it possible to dissolve the salt in a small amount of water. […]

With `CCC[C@@H]1C[C@@H](C(=O)N[C@@H]([C@H]2O[C@H](SC)[C@H](OP(=O)(O)O)[C@@H](O)[C@H]2O)[C@H](C)Cl)N(C)C1` [clindamycin phosphate] the “stability of aqueous solution upon long-term storage” value [1] was “not stable”, the “solubility in glycerin alone” value ([2]; glycerin alone, no water) was “not soluble” and the “maximum salt soluble in water” value ([2]; water alone) was “about 6%”.
